# Test results published in PMC11013284, “Chemoselective Synthesis and Anti-Kinetoplastidal Properties of 2,6-Diaryl-4H-tetrahydro-thiopyran-4-one S-Oxides: Their Interplay in a Cascade of Redox Reactions from Diarylideneacetones” (Molecules, 2024).
# Where two headings read alike, the source gives them in different places.
# Assays:
# [1] = test system: WT LV9 L. donovani intramacrophage amastigotes; experiment: L. donovani intramacrophage amastigote assay; format: cell-based, Leishmania donovani; conditions: for IC90 / IC99 ± SD LV9 intramacrophage amastigotes: Table S6; for IC90: read-out: IC90 ± SD LV9 intramacrophage amastigotes
# [2] = test system: L. donovani LV9 axenic amastigotes; experiment: L. donovani axenic amastigote assay (SYBR green I); format: cell-based, Leishmania donovani; conditions: for IC50: LV9, read-out: IC50 ± SD L. donovani axenic amastigotes; for IC90 / IC99 ± SD LV9 axenic amastigotes: Table S6; for IC90: read-out: IC90 ± SD LV9 axenic amastigotes
# Protocol: L. donovani amastigote forms were suspended to yield 10^7 cells/mL. The final compound concentrations used were 100 µM, 10 µM, 1 µM, 500 nM, and 50 nM. Duplicates were used for each concentration. Cultures were incubated at 37 °C for 72 h in the dark and under a 5% CO2 atmosphere; then, the viability of the amastigotes was assessed using the SYBR® green I (Invitrogen, France) incorporation method. Parasite growth was determined by using SYBR® Green I, a dye with marked fluorescence enhancement upon contact with parasite DNA. Parasites were lysed following Direct PCReCell Genotyping without DNA isolation protocol (Euromedex, Souffelweyersheim, France). A total of […] of SYBR Green I was added to each well, and the contents were mixed. Fluorescence was measured with Mastercylcer® ep realplex (Eppendorf, Montesson, France). The fluorescence obtained was compared to those from the range obtained with different parasite densities.
# in vitro = conditions: human, CC50 hMRC-5 (cytotoxicity)
# Protocol: (§1) The cytotoxicity of compounds was evaluated toward human diploid embryonic lung fibroblast hMRC-5SV2 cells, derived from fetal lung tissue and first described in 1970. hMRC-5SV2 cells were cultured in 96-well plates with five concentrations of the compound (64, 16, 4, 1, and 0.25 μM). After 3 days of incubation, the cell viability was assessed fluorimetrically after the addition of resazurin, and fluorescence was measured (λex = 550 nm, λem = 590 nm). The results were expressed as a percentage reduction in cell growth/viability compared to control wells, and a 50% cytotoxic concentration (CC50) was calculated. The reference cytotoxic drugs were tamoxifen or ivermectin. Additionally, toxicity toward mouse macrophages was qualitatively observed. Three concentrations were included (64, 16, and 4 µM), and the range of toxicity was ranked from the least toxic to the most toxic compound.
# [3] = test system: WT LV9 L. donovani promastigotes; experiment: L. donovani promastigote assay (MTT), wild type; format: cell-based; conditions: Leishmania donovani, 72 h, 3 days; read-out: IC50 ± SD WT LV9 L. donovani promastigotes
# Protocol: (§2) L. donovani promastigote forms from the logarithmic phase culture were suspended to yield 10^6 cells/mL. Miltefosine was used as the antileishmanial reference compound. Compounds to be evaluated and miltefosine were distributed in the plates by making a serial dilution. The final concentrations used were between 100 µM and 50 nM. Triplicates were used for each concentration. After a 3-day incubation period at 27 °C in the dark and under a 5% CO2 atmosphere, the viability of the promastigotes was assessed using the tetrazolium-dye (MTT) colorimetric method, which measures the reduction of a tetrazolium component (MTT) into an insoluble formazan product by the mitochondria of viable cells. After the incubation of the cells with the MTT reagent, a detergent solution (Triton X100, HCl) was added to lyse the cells and dissolve the colored crystals. The absorbance at 570 nm, directly proportional to the number of viable cells, was measured using an ELISA plate reader. The results were expressed as the concentrations inhibiting parasite growth by 50% (IC50) ± SD after a 3-day incubation period.
# [4] = test system: Trypanosoma cruzi (Tulahuen CL2 β-galactosidase) amastigotes in hMRC-5SV2 cells; experiment: T. cruzi intracellular amastigote assay (β-galactosidase/CPRG); format: cell-based; conditions: intracellular amastigotes, 7 days, read-out: IC50 T. cruzi intramacrophage amastigotes (converted)
# Protocol: A nifurtimox-sensitive strain (Tulahuen CL2 β-galactosidase) in human lung fibroblast hMRC-5SV2 cells was incubated for 7 days in 96-well plates with five concentrations of compound (64, 16, 4, 1, and 0.25 μM). The parasitic burden was evaluated through the activity of the enzyme β-galactosidase on a specific chlorophenol red ß-D-galactopyranoside (CPRG) substrate. Live parasites converted the yellow-orange CPRG substrate into the red chromophore chlorophenol red, yielding a dark-red solution, which could be quantitatively measured at 540 nm after 4 h of incubation at 37 °C. The results were expressed as a percentage reduction in parasite growth/viability compared to control wells, and an IC50 was calculated.
# [5] = test system: Trypanosoma brucei brucei trypomastigotes, suramin-sensitive strain (Squib 427); experiment: T. b. brucei growth/viability assay (resazurin); format: cell-based; conditions: 3 days
# Protocol: After 3 days, parasite growth was assessed fluorimetrically following the addition of resazurin. After 24 h at 37 °C, fluorescence was measured (λex = 550 nm, λem = 590 nm). The results were expressed as a percentage reduction in parasite growth/viability compared to control wells, and a 50% inhibitory concentration (IC50) was calculated.
# [6] = test system: L. infantum (MHOM/MA(BE)/67) amastigotes in primary peritoneal mouse macrophages; experiment: L. infantum intramacrophage amastigote assay (microscopic burden); format: cell-based, Leishmania infantum; conditions: 5 days, mouse macrophages as host
# Protocol: L. infantum (MHOM/MA(BE)/67 strain) amastigote were incubated for 5 days in 96-well plates with five concentrations of compound (64, 16, 4, 1, and 0.25 μM). Primary peritoneal mouse macrophages were used as host cells. Parasite burdens (i.e., the number of amastigotes per macrophage) were microscopically assessed. The results were expressed as a percentage reduction in parasite burden compared to untreated control wells, and an IC50 was calculated.
# [7] = Solubility observations (crystals in assay, insolubility in solvents); format: physicochemical; conditions: noted in L. donovani assay, Table S5
# [8] = test system: HePC-R L. donovani promastigotes; experiment: L. donovani promastigote assay, miltefosine-resistant strain; format: cell-based; conditions: Leishmania donovani, read-out: IC50 ± SD HePC-R L. donovani promastigotes
# Protocol: as §2
# murine macrophages = experiment: Qualitative toxicity toward mouse macrophages; conditions: concentration at which toxicity was observed; 64, 16 and 4 µM tested
# Protocol: as §1
# [9] = test system: Trypanosoma brucei brucei trypomastigotes, suramin-sensitive strain (Squib 427); set-up: method as in earlier work; conditions: Table 1, preliminary study; read-out: IC50 T. b. brucei; cited from earlier work
# [10] = test system: L. infantum (MHOM/MA(BE)/67) amastigotes in primary peritoneal mouse macrophages; set-up: method as in earlier work; conditions: Table 1, preliminary study; cited from earlier work
# [11] = test system: human diploid embryonic lung fibroblast hMRC-5SV2 cells; experiment: in vitro
# Protocol: as §1
# [12] = Leishmania donovani, WT LV9, ± SD in Tables S5/S6, read-out: IC50 L. donovani intramacrophage amastigotes
# [13] = Trypanosoma cruzi, TULAHUEN, 168 h
# [14] = Leishmania infantum, Macrophage, 120 h
SMILES,"IC50 [1, 12] [µM]",IC50 ([2]; Leishmania donovani) [µM],CC50 at 3 days (in vitro) [µM],IC50 [3] [µM],"IC50 [4, 13] [µM]","IC50 ([5]; Trypanosoma brucei, 72 h) [µM]","IC50 [6, 14] [µM]",other results
"C[C@@H]1[C@H](O)[C@@H](C)/C=C/C=C/C=C/C=C/C=C/C=C/C=C/[C@H](O[C@@H]2O[C@H](C)[C@@H](O)[C@H](N)[C@@H]2O)C[C@@H]2O[C@](O)(C[C@@H](O)C[C@@H](O)[C@H](O)CC[C@@H](O)C[C@@H](O)CC(=O)O[C@H]1C)C[C@H](O)[C@H]2C(=O)O [Amphotericin B, reference compound]",0.04,0.024,> 64,0.04 ± 0.01,,,,"IC50 ([1]; Leishmania donovani, as worded in footnote a of Table S5, value stands in a middle column of the table, read-out: IC50 against leishmanial WT and HePC-R intramacrophagic amastigotes): 0.08 ± 0.024 µM; IC90 ([1]; Leishmania donovani): 0.05 µM; IC99 ± SD LV9 intramacrophage amastigotes [1]: 0.07 µM; IC90 ([2]; Leishmania donovani): 0.03 µM; IC99 ± SD LV9 axenic amastigotes [2]: 0.039 µM"
O=C(/C=C/c1ccc(Cl)cc1)/C=C/c1ccc(Cl)cc1 [1f],6.3 ± 1.9,> 200,42.4,6.7 ± 0.6,35.6,2.1,> 60,observed macrophage death / lysis observed at (macrophages): > 50 µM; presence of crystals (asterisk mark) [7]: * (presence of crystals at > 50 µM); IC50 [8]: 3.7 ± 0.2 µM
Cl.Cl.O=C(/C=C/c1cccnc1)/C=C/c1cccnc1 [1x],,,1.1,,0.9,≤ 0.3,1,Toxicity (T) observed toward murine macrophages (murine macrophages): T1 (T1 = 64); IC50 [9]: ≤ 0.3 µM
O=C(/C=C/c1ccccc1Cl)/C=C/c1ccccc1Cl [1e],7.4 ± 1.7,> 200,29.4,3.6 ± 0.1,12,7.8,6.8,Toxicity (T) observed toward murine macrophages (murine macrophages): T2 (T2 = 16); observed macrophage death / lysis observed at (macrophages): > 37.5 µM; IC50 [8]: 7.8 ± 1 µM
C=CCOc1ccc(OC)cc1/C=C/C(=O)/C=C/c1cc(OC)ccc1OCC=C [1n],,,> 16,,24.2,26.6,> 64,melting point: 83 °C
O=C(/C=C/c1ccc(OC(F)(F)F)cc1)/C=C/c1ccc(OC(F)(F)F)cc1 [1s],,,32.8,,1.8,0.5,> 64,IC50 [10]: > 64 µM
CN(C)c1ccc([C@H]2CC(=O)C[C@H](c3ccc(N(C)C)cc3)S2)cc1 (racemic) [2u],,,,,,,,"IC99 ± SD LV9 intramacrophage amastigotes [1]: 7.1 ± 15.9 µM; IC90 [1]: 5.6 ± 12.5 µM; IC50 ([1]; WT LV9, ± SD in Tables S5/S6, read-out: IC50 L. donovani intramacrophage amastigotes): 4.5 ± 10 µM; IC50 [2]: 57.5 ± 10.2 µM; IC99 ± SD LV9 axenic amastigotes [2]: 91.1 ± 16.2 µM; IC90 [2]: 71.7 ± 12.7 µM; observed macrophage death / lysis observed at (macrophages; bracketed value after the intramacrophage IC50 (Table S5), Table S6): 100 µM; CC50 [11]: 5 µM; IC50 [4]: 2.5 µM; IC50 [5]: 1.5 µM; IC50 [6]: 43.1 µM"
